Reference: patent publication EP4140481A1, “PROTEIN-OLIGOMER BINDING AGENTS AND THERAPEUTIC USES THEREOF” (Galyan Bio, Inc., priority 2021, dated 2023)

What was measured:
Mur16 and/or Mur46 = assay: Biacore Surface Plasmon Resonance (SPR) screening, binding to the target structures; conditions: third analog screening; binding to the target structure in comparison to parent compound
Method: (§1) Exon 1 of the HTT huntingtin (NCBI Gene ID 3064) was expressed as a fusion protein with (i) TRX only (MurTRX); (ii) 16Q (Mur16); and (iii) 46Q (Mur46). MurTRX, Mur16, and Mur46 were produced and purified by HIStag and size exclusion chromatography (SEC). The protocol for MurTRX, Mur16 and Mur46 expression was adopted from Bennett, M.J. et al. Proc. Natl. Acad. Sci. USA 99, 11634-11639. 2002.
Primary Screen - Results - 39 compounds determined from the in-silico screen were tested. Following solvent correction and blank subtraction, double referenced binding levels for samples were plotted against binding levels on both Mur 16 and Mur 46. […] The 4 compounds consistently bind with a higher response on the 16 Q surface than the 46 Q repeat surface, despite the MAb positive control showing the opposite trend.

Mur46 = molecular target: T1, Mur46 (Homo sapiens, UniProt P42858, INS38QQQQQQQQQQQQQQQQQQQQQQQQQ); assay: Biacore SPR, Mur46 coupled flow cell; conditions: binding to Mur46; 0.1 mM compound concentration
T1 construct: linker […]; made in house; host or cells: E. coli BL21(DE3) plysE, pET28a+
T1 sequence (P42858 with tags, fused parts or gaps with the stated changes limits assumed): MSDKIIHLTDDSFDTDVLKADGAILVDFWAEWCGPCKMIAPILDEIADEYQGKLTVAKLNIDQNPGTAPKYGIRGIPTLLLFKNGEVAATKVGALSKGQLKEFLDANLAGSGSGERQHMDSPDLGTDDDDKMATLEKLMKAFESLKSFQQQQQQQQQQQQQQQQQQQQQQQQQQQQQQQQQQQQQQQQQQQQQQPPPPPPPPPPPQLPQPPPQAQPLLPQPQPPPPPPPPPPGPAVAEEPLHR
Source text: as §1
Biacore Affinity Values for Binding of Compounds to Mur46

Cc1[nH]c2ccc(C(=O)N(C)CCN(C)C3CC3)cc2c1C [Compound 114]
Binding properties (Mur16 and/or Mur46): +/-
Biacore affinity (Mur46): 20 RU^2
